# Source: ChEMBL document CHEMBL5236654, “Fine-tuning of nitrogen-containing bisphosphonate esters that potently induce degradation of HMG-CoA reductase” (Bioorg Med Chem, 2023)
# Target: T1, 3-hydroxy-3-methylglutaryl-coenzyme A reductase (Homo sapiens, UniProt P04035)
# T1 sequence (P04035 whole entry): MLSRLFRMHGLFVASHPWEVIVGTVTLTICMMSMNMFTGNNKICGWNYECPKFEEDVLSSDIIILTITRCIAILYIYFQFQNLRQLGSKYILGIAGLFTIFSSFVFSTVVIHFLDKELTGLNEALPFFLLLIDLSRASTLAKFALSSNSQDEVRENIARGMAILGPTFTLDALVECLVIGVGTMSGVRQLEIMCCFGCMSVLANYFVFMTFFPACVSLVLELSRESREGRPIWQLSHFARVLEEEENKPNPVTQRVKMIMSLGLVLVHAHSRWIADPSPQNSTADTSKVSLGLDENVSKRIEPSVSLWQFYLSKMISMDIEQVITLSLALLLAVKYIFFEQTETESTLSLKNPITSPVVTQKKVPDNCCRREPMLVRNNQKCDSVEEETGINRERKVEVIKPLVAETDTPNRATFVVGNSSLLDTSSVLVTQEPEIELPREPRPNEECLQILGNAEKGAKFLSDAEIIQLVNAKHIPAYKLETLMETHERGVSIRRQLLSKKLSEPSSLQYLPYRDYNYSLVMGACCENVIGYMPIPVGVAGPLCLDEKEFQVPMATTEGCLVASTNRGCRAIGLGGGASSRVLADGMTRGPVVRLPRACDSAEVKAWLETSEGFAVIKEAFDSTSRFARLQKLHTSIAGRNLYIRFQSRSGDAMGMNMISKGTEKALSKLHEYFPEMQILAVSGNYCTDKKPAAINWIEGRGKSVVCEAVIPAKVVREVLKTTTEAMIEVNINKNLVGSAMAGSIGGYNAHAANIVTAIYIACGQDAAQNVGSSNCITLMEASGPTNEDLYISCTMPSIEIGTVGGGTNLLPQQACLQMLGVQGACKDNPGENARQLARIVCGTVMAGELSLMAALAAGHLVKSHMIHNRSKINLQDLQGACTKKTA
# Assay: Induction of HMGCR degradation in human HepG2 cells incubated for 3 hrs by densitometric analysis
# Assay type: cell-based
row,Compound,EC50 [nM]
1,CCOP(=O)(OCC)C(Cc1cc(C(C)(C)C)c(O)c(C(C)(C)C)c1)P(=O)(OCC)OCC,1100

# Target: T2, 3-hydroxy-3-methylglutaryl-coenzyme A reductase (Cricetulus griseus, UniProt P00347)
# T2 sequence (P00347 whole entry): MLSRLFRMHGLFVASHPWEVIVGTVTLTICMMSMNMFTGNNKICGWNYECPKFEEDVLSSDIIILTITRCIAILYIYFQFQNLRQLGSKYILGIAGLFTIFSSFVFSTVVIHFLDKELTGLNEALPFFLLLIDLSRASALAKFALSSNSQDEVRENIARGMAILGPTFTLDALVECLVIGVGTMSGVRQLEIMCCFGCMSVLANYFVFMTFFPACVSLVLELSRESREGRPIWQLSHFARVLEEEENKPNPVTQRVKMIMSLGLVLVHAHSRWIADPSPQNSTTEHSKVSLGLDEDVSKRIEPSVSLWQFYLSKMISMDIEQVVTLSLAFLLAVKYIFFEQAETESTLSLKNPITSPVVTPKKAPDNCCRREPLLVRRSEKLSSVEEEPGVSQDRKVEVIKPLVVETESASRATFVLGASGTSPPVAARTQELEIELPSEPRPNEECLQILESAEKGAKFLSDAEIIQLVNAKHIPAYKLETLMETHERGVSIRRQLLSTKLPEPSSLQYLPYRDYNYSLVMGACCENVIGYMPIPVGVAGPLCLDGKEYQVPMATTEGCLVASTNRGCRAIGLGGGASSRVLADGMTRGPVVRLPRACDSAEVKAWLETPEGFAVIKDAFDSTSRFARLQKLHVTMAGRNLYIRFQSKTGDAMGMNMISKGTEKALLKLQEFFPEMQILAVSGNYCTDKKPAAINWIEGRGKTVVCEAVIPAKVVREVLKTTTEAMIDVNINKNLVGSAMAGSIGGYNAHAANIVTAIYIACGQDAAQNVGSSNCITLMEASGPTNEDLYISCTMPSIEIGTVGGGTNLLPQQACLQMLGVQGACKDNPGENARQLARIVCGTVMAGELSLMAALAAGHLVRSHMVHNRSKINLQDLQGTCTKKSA
# Assay: Induction of HMGCR degradation in CHO-7 cells incubated for 16 hrs by immunoblotting assay
# Assay type: cell-based
row,Compound,EC50 [nM]
1,C=CCC(O)(CC=C)CCC[C@@H](C)[C@H]1CC[C@H]2[C@@H]3[C@@H](O)C=C4C(C)(C)[C@@H](O)CC[C@]4(C)[C@H]3CC[C@]12C,390

# Target: T1, 3-hydroxy-3-methylglutaryl-coenzyme A reductase
# Assay: Induction of HMGCR degradation in HEK293 cells incubated for 4 hrs by luciferase based assay
# Assay type: cell-based
row,Compound,EC50 [nM]
1,CCCCOP(=O)(OCCCC)C(Cc1cc(C(C)(C)C)nc(C(C)(C)C)c1)P(=O)(OCCCC)OCCCC,> 10000
2,CC(C)COP(=O)(OCC(C)C)C(Cc1cc(C(C)(C)C)nc(C(C)(C)C)c1)P(=O)(OCC(C)C)OCC(C)C,> 10000
3,CCCOP(=O)(OCCC)C(Cc1cc(C(C)(C)C)nc(C(C)(C)C)c1)P(=O)(OCCC)OCCC,832
4,CC(C)OP(=O)(OC(C)C)C(Cc1cc(C(C)(C)C)nc(C(C)(C)CO)c1)P(=O)(OC(C)C)OC(C)C,389
5,CCCCC(CC)c1cc(CC(P(=O)(OC(C)C)OC(C)C)P(=O)(OC(C)C)OC(C)C)cc(C(C)(C)C)n1 (centres undefined),990
6,CC(C)OP(=O)(OC(C)C)C(Cc1cc(C2CCCCC2)nc(C2CCCCC2)c1)P(=O)(OC(C)C)OC(C)C,> 10000
7,CCC(CC)c1cc(CC(P(=O)(OC(C)C)OC(C)C)P(=O)(OC(C)C)OC(C)C)cc(C(C)(C)C)n1,722
8,CC(C)OP(=O)(OC(C)C)C(Cc1cc(Cc2ccccc2)nc(C(C)(C)C)c1)P(=O)(OC(C)C)OC(C)C,874
9,CC(C)OP(=O)(OC(C)C)C(Cc1cc(C(C)(C)C)nc2ccccc12)P(=O)(OC(C)C)OC(C)C,1450
10,CC(C)OP(=O)(OC(C)C)C(Cc1cc(C23CC4CC(CC(C4)C2)C3)nc(C23CC4CC(CC(C4)C2)C3)c1)P(=O)(OC(C)C)OC(C)C,> 10000
11,CC(C)(C)c1cc(CC(P(=O)(OCC2CC2)OCC2CC2)P(=O)(OCC2CC2)OCC2CC2)cc(C(C)(C)C)n1,> 10000
12,CC(C)OP(=O)(OC(C)C)C(Cc1cc(C(C)(C)C)nc(C(C)(C)C)n1)P(=O)(OC(C)C)OC(C)C,450
13,CC(C)OP(=O)(OC(C)C)C(Cc1cc(C(C)(C)C)nc(C23CC4CC(CC(C4)C2)C3)c1)P(=O)(OC(C)C)OC(C)C,2260
14,COCOCC(C)(C)c1cc(CC(P(=O)(OC(C)C)OC(C)C)P(=O)(OC(C)C)OC(C)C)cc(C(C)(C)C)n1,492
15,CC(C)OP(=O)(OC(C)C)C(Cc1cc(C(C)(C)C)cc(C(C)(C)C)n1)P(=O)(OC(C)C)OC(C)C,693
16,CC(C)OP(=O)(OC(C)C)C(Cc1cc(C2CCCCC2)nc(C(C)(C)C)c1)P(=O)(OC(C)C)OC(C)C,598

# The next lines start with the values.
row,EC50 [nM],Compound
1,356,CCC(CF)(CF)c1cc(CC(P(=O)(OC(C)C)OC(C)C)P(=O)(OC(C)C)OC(C)C)cc(C(CC)(CF)CF)n1
2,351,CC(C)OP(=O)(OC(C)C)C(Cc1cc(C(C)C)nc(C(C)(C)C)c1)P(=O)(OC(C)C)OC(C)C
3,337,CCOP(=O)(OCC)C(Cc1cc(C(C)(C)C)nc(C(C)(C)C)c1)P(=O)(OCC)OCC
4,336,CCCC(C)(C)c1cc(CC(P(=O)(OC(C)C)OC(C)C)P(=O)(OC(C)C)OC(C)C)cc(C(C)(C)C)n1
5,311,CC(C)OP(=O)(OC(C)C)C(Cc1cc(C(C)(C)C)nc(C(C)(C)COCc2ccccc2)c1)P(=O)(OC(C)C)OC(C)C
6,152,CCC(C)(C)c1cc(CC(P(=O)(OC(C)C)OC(C)C)P(=O)(OC(C)C)OC(C)C)cc(C(C)(C)C)n1
7,132,CC(C)OP(=O)(OC(C)C)C(Cc1cc(C(C)(C)C)nc(C(C)(C)C)c1)P(=O)(OC(C)C)OC(C)C
8,102,CCC(CF)(CF)c1cc(CC(P(=O)(OC(C)C)OC(C)C)P(=O)(OC(C)C)OC(C)C)cc(C(C)(C)C)n1
9,98.2,CCC(C)(C)c1cc(CC(P(=O)(OC(C)C)OC(C)C)P(=O)(OC(C)C)OC(C)C)cc(C(C)(C)CC)n1
10,97.6,CC(C)OP(=O)(OC(C)C)C(Cc1cc(C(C)(C)C)nc(C(C)(C)CF)c1)P(=O)(OC(C)C)OC(C)C
11,84.2,CC(C)OP(=O)(OC(C)C)C(Cc1cc(C(C)(C)CF)nc(C(C)(C)CF)c1)P(=O)(OC(C)C)OC(C)C
